Results: patent publication EP0334055A2, “Substituted benzoxazinones, several processes and intermediates for their preparation and their use as herbicides” (BAYER AG, priority 1988, dated 1989)

How the values were obtained:
Testpflanzen [1] = test: Pre-emergence test (herbicidal damage to test plants); assay type: in vivo; details: damage rated after three weeks against untreated control, compared with Vergleichssubstanz (A) (Oxadiazone/Ronstar)
Text: Lösungsmittel: 5 Gewichtsteile Aceton Emulgator: 1 Gewichtsteil Alkylarylpolyglykolether
(§1) Zur Herstellung einer zweckmäßigen Wirkstoffzubereitung vermischt man 1 Gewichtsteil Wirkstoff mit der angegebenen Menge Lösungsmittel, gibt die angegebene Menge Emulgator zu und verdünnt das Konzentrat mit Wasser auf die gewünschte Konzentration.
Samen der Testpflanzen werden in normalen Boden ausgesät und nach 24 Stunden mit der Wirkstoffzubereitung begossen. Dabei hält man die Wassermenge pro Flächeneinheit zweckmäßigerweise konstant. Die Wirkstoffkonzentration in der Zubereitung spielt keine Rolle, entscheidend ist nur die Aufwandmenge des Wirkstoffs pro Flächeneinheit. Nach drei Wochen wird der Schädigungsgrad der Pflanzen bonitiert in % Schädigung im Vergleich zur Entwicklung der unbehandelten Kontrolle. Es bedeuten: 0 % = keine Wirkung (wie unbehandelte Kontrolle) 100 % = totale Vernichtung

Testpflanzen [2] = test: Post-emergence test (herbicidal damage to test plants); assay type: in vivo; details: plants 5 - 15 cm, 2000 l Wasser/ha, damage rated after three weeks, compared with Vergleichssubstanz (A) (Oxadiazone/Ronstar)
Text: Lösungsmittel: 5 Gewichtsteil Aceton Emulgator: 1 Gewichtsteil Alkylarylpolyglykolether
as §1
Mit der Wirkstoffzubereitung spritzt man Testpflanzen, welche eine Höhe von 5 - 15 cm haben so, daß die jeweils gewünschten Wirkstoffmengen pro Flächeneinheit ausgebracht werden. Die Konzentration der Spritzbrühe wird so gewählt, daß in 2000 l Wasser/ha die jeweils gewünschten Wirkstoffmengen ausgebracht werden. Nach drei Wochen wird der Schädigungsgrad der Pflanzen bonitiert in % Schädigung im Vergleich zur Entwicklung der unbehandelten Kontrolle.
Es bedeuten: 0 % = keine Wirkung (wie unbehandelte Kontrolle) 100 % = totale Vernichtung

| Compound | Wirksamkeit gegenüber der Vergleichssubstanz (A) (Testpflanzen [1]) | Wirksamkeit gegenüber der Vergleichssubstanz (A) (Testpflanzen [2]) |
| --- | --- | --- |
| C#CCN1C(=O)COc2cc(F)c(-n3nc(C(C)(C)C)oc3=O)cc21 [Beispiel 5, 7-Fluor-4-propargyl-6-(2-tert-butyl-5-oxo-4,5-dihydro-1H-1,3,4-oxadiazol-3-yl)-3,4-dihydro-3-oxo-2H-1,4-benzoxazin] | deutliche Überlegenheit | deutliche Überlegenheit |
| C#CCN1C(=O)COc2cc(F)c(-n3nc(C)c(Cl)c3C)cc21 [Beispiel 24, 7-Fluor-6-(3,5-dimethyl-4-chlorpyrazol)-4-propargyl-3,4-dihydro-3-oxo-2H-1,4-benzoxazin] | deutliche Überlegenheit | – |
| 2-(3,4-Dihydro-3-oxo-4-propargyl-2H-1,4-benzoxazinyl)-3-chloro-4,5,6,7-tetrahydro-2H-indazol [Beispiel 31] | deutliche Überlegenheit | deutliche Überlegenheit |
| O=C1COc2ccc(-n3nc4c(c3Cl)CCCC4)cc2N1 [Beispiel 30, 2-(3,4-dihydro-3-oxo-2H-1,4-benzoxazinyl)-3-chloro-4,5,6,7-tetrahydro-2H-indazol] | deutliche Überlegenheit | – |
| CC(C)(C)c1nn(-c2cc3c(cc2F)OCC(=O)N3)c(=O)o1 [Beispiel 3, 7-Fluor-6-(2-tert-butyl-5-oxo-4,5-dihydro-1H-1,3,4-oxadiazol-3-yl)-3,4-dihydro-3-oxo-2H-1,4-benzoxazin] | deutliche Überlegenheit | deutliche Überlegenheit |
| 7-Fluor-6-trimethylpyrazolyl-4-propargyl-3,4-dihydro-3-oxo-2H-1,4-benzoxazin [Beispiel 4] | deutliche Überlegenheit | deutliche Überlegenheit |
